Values quoted from earlier work, collected in paper PMC4349960, “[^18F]FE@SUPPY: a suitable PET tracer for the adenosine A3 receptor? An in vivo study in rodents” (European Journal of Nuclear Medicine and Molecular Imaging, 2015).

Set-up: method as in PMID 18158944
Conditions: cited from earlier work

Compound: CCSC(=O)c1c(CC)nc(-c2ccccc2)c(C(=O)OCC[18F])c1CC [[^18F]FE@SUPPY, 5-(2-[^18F]fluoroethyl)-2,4-diethyl-3-(ethylsulfanylcarbonyl)-6-phenylpyridine-5-carboxylate]
- Biodistribution in rats: Followed mainly A3 pattern (except testes) [3]
- Bone uptake in rats: None [3]
- Brain to blood uptake ratio in biodistribution experiments (rats): up to 5.4
- brain-to-blood ratios over time (rats): increase over time
